Experimental data taken from patent US20260077056A1, “LINKER-PAYLOAD COMPOUND, CONJUGATES AND APPLICATIONS THEREOF” (priority 2022, published 2026).

What was measured:
[1] = test system: HER2 negative cell line MDA-MB-468; experiment: Cytotoxicity assay (CellTiter-Glo cell viability), MDA-MB-468; type: cell-based; conditions: for IC50: Homo sapiens, MDA-MB-468, 96 h, 96 h treatment
Procedure: (§1) Cytotoxicity assays were performed using HER2 high-expressing cancer cells NCI-N87 (FIG. 1) and SK-BR-3 (FIG. 2), as well as a HER2 negative cell line MDA-MB-468 (FIG. 3) to analyze the effect of conjugates on tumor cell proliferation. […] In brief, 5000 cells were plated in 96-well plates, and cells were able to attach overnight. Cells were treated with indicated drugs with various concentrations for 96 h. Cell viabilities were examined by CellTiter-Glo® Luminescent Cell Viability Assay, and percentage of cell viability was calculated.
as §1, with “4)” for “1)”, “5),” for “2),”, “6)” for “3)”

[2] = test system: HER2 high-expressing cancer cells SK-BR-3; experiment: Cytotoxicity assay (CellTiter-Glo cell viability), SK-BR-3; type: cell-based; conditions: for IC50: Homo sapiens, SK-BR-3, 96 h, 96 h treatment
Procedure: (§2) Cytotoxicity assays were performed using HER2 high-expressing cancer cells NCI-N87 (FIG. 1) and SK-BR-3 (FIG. 2), as well as a HER2 negative cell line MDA-MB-468 (FIG. 3) to analyze the effect of conjugates on tumor cell proliferation. The tested articles included conjugates EC302-2-4-1-1 and EC301-2-1-1-1, and a small molecule eribulin (structure is depicted above). In brief, 5000 cells were plated in 96-well plates, and cells were able to attach overnight. Cells were treated with indicated drugs with various concentrations for 96 h. Cell viabilities were examined by CellTiter-Glo® Luminescent Cell Viability Assay, and percentage of cell viability was calculated.
as §1, with “4)” for “1)”, “5),” for “2),”, “6)” for “3)”

[3] = test system: FGFR3 negative cancer cell MCF-7; experiment: Cytotoxicity assay (CellTiter-Glo cell viability), MCF-7; type: cell-based; conditions: 96 h
Procedure: (§3) Cytotoxicity assays were performed using FGFR3 high-expressing cancer cells RT112/84 and RT4, FGFR3 negative cancer cell MCF-7 (FIG. 7) to analyze the effect of conjugates on tumor cell proliferation. The tested articles included conjugate EC302-2-4-1-2, and a small molecule eribulin (structure is depicted above). In brief, 2000 cells (RT112/84) or 5000 cells (RT4 or MCF-7) were plated in 96-well plates, and cells were able to attach overnight. Cells were treated with indicated drugs with various concentrations for 96 h. Cell viabilities were examined by CellTiter-Glo® Luminescent Cell Viability Assay, and percentage of cell viability was calculated.

[4] = test system: FGFR3 high-expressing cancer cells RT4; experiment: Cytotoxicity assay (CellTiter-Glo cell viability), RT4; type: cell-based; conditions: RT4, FGFR3-positive; 96 h
Procedure: as §3

[5] = test system: FGFR3 high-expressing cancer cells RT112/84; experiment: Cytotoxicity assay (CellTiter-Glo cell viability), RT112/84; type: cell-based; conditions: RT112/84, FGFR3-positive; 96 h
Procedure: as §3

[6] = test system: HER2 high-expressing cancer cells NCI-N87; experiment: Cytotoxicity assay (CellTiter-Glo cell viability), NCI-N87; type: cell-based, human; conditions: for IC50: Homo sapiens, NCI-N87, 96 h, 96 h treatment
Procedure: as §2
as §1, with “4)” for “1)”, “5),” for “2),”, “6)” for “3)”

SMILES: C=C1C[C@@H]2CC[C@@]34C[C@H]5O[C@H]6[C@@H](O3)[C@H]3O[C@H](CC[C@@H]3O[C@H]6[C@H]5O4)CC(=O)C[C@@H]3[C@@H](OC)[C@@H](C[C@H](O)CN)O[C@H]3C[C@H]3O[C@@H](CC[C@@H]1O2)C[C@@H](C)C3=C [Eribulin]
- cytotoxicity, in words ([1]; Effect Example 1, MDA-MB-468, HER2 negative): sensitive
- IC50 ([1]; Effect Example 1, Table 4): 0.211 nM
- IC50 ([1]; Effect Example 2, Table 5): 0.094 nM
- cell proliferation-inhibitory effect, in words ([2]; Effect Example 1, SK-BR-3, HER2 high): sensitive
- IC50 ([2]; Effect Example 1, Table 4): 0.298 nM
- IC50 ([2]; Effect Example 2, Table 5): 0.211 nM
- cytotoxicity, in words [3]: sensitive
- effect on cell proliferation, in words [4]: sensitive
- effect on cell proliferation, in words [5]: sensitive
- cell proliferation-inhibitory effect, in words ([6]; Effect Example 1, NCI-N87, HER2 high): sensitive
- IC50 ([6]; Effect Example 1, Table 4): 0.448 nM
- IC50 ([6]; Effect Example 2, Table 5): 0.501 nM
